Reference: patent publication US9347888B2, “Detection of bacteria exhibiting a resistance to carbapenems” (BIOMERIEUX, priority 2011, dated 2016)

Experiments:
[1] = system: IR (impermeability resistance) strains; experiment: Impact of cloxacillin and/or PAbetaN with faropenem, agar dilution; format: cell-based, Gram-negative bacteria
Method: (§1) Seventy-seven strains of Gram-negative bacteria, of which 71 are enterobacteria and 6 non-enterobacteria (non-fermenting bacteria), whose resistance characteristics are set out in Table VIII, were tested on media containing different concentrations of faropenem and cloxacillin, with or without PAbetaN, in order to establish the sensitivity and the specificity of each formulation. The tested media are described in Table IX.
(§2) The chromogenic media are divided into 120×120 square dishes.
(§3) The seeding is performed from 24-h pre-cultures at 37° C. on trypcase soy agar. For each strain, a 0.5 McF suspension in physiological water is produced. Each suspension is spot-seeded (1 to 2 μL) on each medium with the aid of a multi-point inoculator according to the Agar Dilution (AD) method. Readings are performed after 24 hours of incubation at 37° C.
(§4) An absence of bacterial growth or a number of colonies which is less than or equal to 3 are considered as corresponding to growth inhibition. The presence of 4 colonies or more is considered to be positive growth.

Total carbapenemases = experiment: as above; format: cell-based, Gram-negative bacteria; details: cloxacillin alone (no PAbetaN), at the 3 concentrations of faropenem tested
Method: as §1, §2, §3, §4

[2] = Test of stability of the different carbapenems in agar medium; format: physicochemical; details: agar media kept at 2 to 8°C up to 9 weeks (63 days); strains seeded D0, D14, D42, D63
Method: Agar media modelled on those indicated supra were prepared and kept at a temperature of between 2 and 8° C. for up to 9 weeks (63 days).
ESBL and AmpC strains, and carbapenemases from class B, IR or KPC, were seeded on these different media on D0, D14, D42 and D63.

[3] = system: carbapenemase-producing strains; experiment: Faropenem on pure strains, agar dilution: detection sensitivity; format: cell-based, Gram-negative bacteria; details: medium containing 16 mg/L faropenem; for Detection sensitivity (strains detected/strains): 24 h 37°C
Method: (§5) Seventy-nine strains of Gram-negative bacteria, of which 69 are enterobacteria and 10 non-enterobacteria (non-fermenting bacteria), whose resistance characteristics are set out in Table I, were tested on media containing different concentrations of faropenem in order to establish the sensitivity/specificity of each formulation. The dishes were read after 24 hours of incubation at 37° C.
(§6) The medium used is a conventional agar medium comprising at least one chromogenic substrate, and supplemented with faropenem at the following concentrations:
(§7) The media are divided into 120×120 square dishes.
(§8) The seeding is performed from 24-h pre-cultures at 37° C. on trypcase soy agar.
(§9) For each strain, a 0.5 McF suspension in physiological water is produced and then diluted 1/100.
(§10) Each suspension is spot-seeded (1 to 2 μL) on each medium with the aid of a multi-point inoculator according to the Agar Dilution (AD) method.
(§11) Readings are performed after 24 hours of incubation at 37° C.
(§12) For interpretation, the following cases are considered as corresponding to growth inhibition: • absence of bacterial growth • number of colonies≦3
(§13) The presence of 4 colonies or more is considered to be positive growth.

[4] = system: strains with other types of resistance (ESBL or cephalosporinase, impermeability resistance); experiment: Faropenem on pure strains, agar dilution: detection specificity; format: cell-based, Gram-negative bacteria; details: medium containing 16 mg/L faropenem; for Detection specificity (strains inhibited/strains): 24 h 37°C
Method: as §5, §6, §7, §8, §9, §10, §11, §12, §13

KPC strains = experiment: Faropenem on pure strains, agar dilution: MIC and growth of KPC strains; format: cell-based, Gram-negative bacteria
Method: as §5, §6, §7, §8, §9, §10, §11, §12, §13

Cc1onc(-c2ccccc2Cl)c1C(=O)N[C@@H]1C(=O)N2[C@@H]1SC(C)(C)[C@@H]2C(=O)O [cloxacillin]
additional IR strains inhibited ([1]; addition of 50 mg/L cloxacillin at 16 mg/L of faropenem): 6 | additional IR strains inhibited ([1]; addition of 200 mg/L cloxacillin at 16 mg/L of faropenem): 9 | impact on the growth of the carbapenemase-producing strains (Total carbapenemases): little or no impact

C[C@@H](O)[C@H]1C(=O)N2C(C(=O)O)=C(S[C@@H]3CN[C@H](CNS(N)(=O)=O)C3)[C@H](C)[C@H]12 [doripenem]
stability in agar medium [2]: close to that of ertapenem, and greater than that of imipenem and of meropenem

C[C@@H](O)[C@H]1C(=O)N2C(C(=O)O)=C([C@H]3CCCO3)S[C@H]12 [faropenem]
Detection sensitivity ([3]; inoculum 0.5 McF): 91.4% | Detection sensitivity ([3]; inoculum 0.5 McF diluted 1/100): 91.4% | Detection sensitivity (strains detected/strains) ([3]; inoculum 0.5 McF diluted 1/100): 53/58 | Detection sensitivity (strains detected/strains) ([3]; inoculum 0.5 McF): 53/58 | Detection specificity ([4]; inoculum 0.5 McF): 66.7% | Detection specificity ([4]; inoculum 0.5 McF diluted 1/100): 71.4% | Detection specificity (strains inhibited/strains) ([4]; inoculum 0.5 McF diluted 1/100): 15/21 | Detection specificity (strains inhibited/strains) ([4]; inoculum 0.5 McF): 14/21 | KPC strains developing on the medium (KPC strains; faropenem at 16 mg/L): All of the KPC strains develop | MIC of the totality of KPC strains (KPC strains; whatever the inoculum tested, unit not printed (media in mg/L)): > 32 | stability in agar medium [2]: close to that of ertapenem, and greater than that of imipenem and of meropenem | No. IR developing (/19) ([1]; PAbetaN 0, cloxacillin 0, faropenem 8 mg/L): 16 | No. IR developing (/19) ([1]; PAbetaN 0, cloxacillin 0, faropenem 16 mg/L): 15 | No. IR developing (/19) ([1]; PAbetaN 0, cloxacillin 0, faropenem 32 mg/L): 10 | No. IR developing (/19) ([1]; PAbetaN 0, cloxacillin 50, faropenem 8 mg/L): 14 | No. IR developing (/19) ([1]; PAbetaN 0, cloxacillin 50, faropenem 16 mg/L): 9 | No. IR developing (/19) ([1]; PAbetaN 0, cloxacillin 50, faropenem 32 mg/L): 4 | No. IR developing (/19) ([1]; PAbetaN 0, cloxacillin 100, faropenem 8 mg/L): 11 | No. IR developing (/19) ([1]; PAbetaN 0, cloxacillin 100, faropenem 16 mg/L): 6 | No. IR developing (/19) ([1]; PAbetaN 0, cloxacillin 100, faropenem 32 mg/L): 2 | No. IR developing (/19) ([1]; PAbetaN 0, cloxacillin 200, faropenem 8 mg/L): 11 | No. IR developing (/19) ([1]; PAbetaN 0, cloxacillin 200, faropenem 16 mg/L): 6 | No. IR developing (/19) ([1]; PAbetaN 0, cloxacillin 200, faropenem 32 mg/L): 1 | No. IR developing (/19) ([1]; PAbetaN 25, cloxacillin 50, faropenem 8 mg/L): 11 | No. IR developing (/19) ([1]; PAbetaN 25, cloxacillin 50, faropenem 16 mg/L): 10 | No. IR developing (/19) ([1]; PAbetaN 25, cloxacillin 50, faropenem 32 mg/L): 5 | No. IR developing (/19) ([1]; PAbetaN 25, cloxacillin 100, faropenem 8 mg/L): 10 | No. IR developing (/19) ([1]; PAbetaN 25, cloxacillin 100, faropenem 16 mg/L): 5 | No. IR developing (/19) ([1]; PAbetaN 25, cloxacillin 100, faropenem 32 mg/L): 1 | No. IR developing (/19) ([1]; PAbetaN 25, cloxacillin 200, faropenem 8 mg/L): 7 | No. IR developing (/19) ([1]; PAbetaN 25, cloxacillin 200, faropenem 16 mg/L): 1 | No. IR developing (/19) ([1]; PAbetaN 25, cloxacillin 200, faropenem 32 mg/L): 1 | impact on IR strains ([1]; faropenem alone, up to a concentration of 16 mg/L): little impact
